US20050009894A1 (Aventis Pharma S.A., priority 2001, published 2005)

Biological target: T1, human KDR enzyme (Homo sapiens, UniProt P35968)
T1 construct: The cytoplasmic domain of human KDR enzyme is cloned in the form of a GST fusion; GST; made in house; host or cells: SF21 insect cells (baculovirus, pFastBac)
Assay: Phosphorylation of the substrate PLCγ by the enzyme KDR in vitro (flashplate technique)
Assay type: biochemical
Details: Table VII, degrees of activity by IC50 range; read-out: Activity
Procedure, shortened: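 GST-fused human KDR cytoplasmic domain (Sf21 baculovirus, ~60% pure; 100 ng/well) phosphorylating 2 μg GST-PLCγ SH2-SH3 fragment in MOPS pH 7.2 with MgCl2/MnCl2, 1 h at 37° C. Started with γ33P-ATP plus cold ATP (2 μM in start solution); flashplate radioactivity. % inhibition vs no-compound control; IC50 from dose-response curves.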

T1 sequence (P35968 786-1356 limits assumed): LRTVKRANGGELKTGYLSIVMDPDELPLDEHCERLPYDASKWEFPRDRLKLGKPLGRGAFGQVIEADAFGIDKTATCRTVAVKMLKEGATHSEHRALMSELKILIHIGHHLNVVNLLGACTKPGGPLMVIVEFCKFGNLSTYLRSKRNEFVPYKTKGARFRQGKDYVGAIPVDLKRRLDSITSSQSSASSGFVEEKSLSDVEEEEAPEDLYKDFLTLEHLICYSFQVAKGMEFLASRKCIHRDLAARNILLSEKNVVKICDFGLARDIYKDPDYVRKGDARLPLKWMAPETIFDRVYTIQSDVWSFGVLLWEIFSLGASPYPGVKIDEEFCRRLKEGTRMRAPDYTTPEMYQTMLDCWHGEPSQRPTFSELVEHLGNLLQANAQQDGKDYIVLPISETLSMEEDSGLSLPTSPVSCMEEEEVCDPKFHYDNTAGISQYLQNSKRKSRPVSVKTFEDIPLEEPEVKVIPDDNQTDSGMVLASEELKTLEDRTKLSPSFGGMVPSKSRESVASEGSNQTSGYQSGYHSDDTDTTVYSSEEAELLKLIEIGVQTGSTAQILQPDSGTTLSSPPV

Question: How did the IC50 turn out when O=C(NCc1csc2ccccc12)c1cccc2nc(-c3n[nH]c4ccccc34)[nH]c12 [Example 83, 2-(1H-Indazol-3-yl)-3H-benzoimidazole-4-carboxylic acid (benzo[b]thiophen-3-ylmethyl)-amide] was run?
Answer: > 3 µM

Question: Which IC50 does the source give for CS(=O)(=O)c1ccc(CNC(=O)c2ccc3[nH]c(-c4n[nH]c5ccccc45)nc3c2)cc1 [Example 31, 2-(1H-Indazol-3-yl)-1H-benzoimidazole-5-carboxylic acid 4-methanesulfonyl-benzylamide] here?
Answer: < 0.3 µM

Question: How did the IC50 turn out when O=C(NCc1cccs1)c1ccc2[nH]c(-c3n[nH]c4ccccc34)nc2c1 [Example 34, 2-(1H-Indazol-3-yl)-1H-benzoimidazole-5-carboxylic acid (thiophen-2-ylmethyl)-amide] was run?
Answer: 0.3 to 3 µM

Question: How did the IC50 turn out when CN(C)c1ccc(CNC(=O)c2cccc3nc(-c4n[nH]c5ccccc45)[nH]c23)cc1 [Example 78, 2-(1H-Indazol-3-yl)-3H-benzoimidazole-4-carboxylic acid 4-dimethylamino-benzylamide] was run?
Answer: > 3 µM

Question: OCc1ccc(-c2ccc3nc(-c4[nH]nc5ccccc45)[nH]c3c2)cc1 [Example 141, {4-[2-(2H-Indazol-3-yl)-3H-benzoimidazol-5-yl]-phenyl}-methanol] was tested. Which IC50 did it give?
Answer: 0.3 to 3 µM

Question: How did the IC50 turn out when O=C(NCc1c(F)cccc1F)c1ccc2[nH]c(-c3n[nH]c4ccccc34)nc2c1 [Example 156, 2-(1H-Indazol-3-yl)-1H-benzoimidazole-5-carboxylic acid 2,6-difluoro-benzylamide] was run?
Answer: 0.3 to 3 µM

Question: How did the IC50 turn out when CC(=O)c1ccc(-c2ccc3nc(-c4[nH]nc5ccccc45)[nH]c3c2)cc1 [Example 125, 1-{4-[2-(2H-Indazol-3-yl)-3H-benzoimidazol-5-yl]-phenyl}-ethanone] was run?
Answer: > 3 µM

Question: For O=C(COc1cc(-c2nc3ccccc3[nH]2)[nH]n1)c1ccc(OC(F)(F)F)cc1 [Example 210, 2-[5-(1H-Benzoimidazol-2-yl)-1H-pyrazol-3-yloxy]-1-(4-trifluoromethoxy-phenyl)-ethanone], which IC50 is on record?
Answer: > 3 µM

Question: NS(=O)(=O)c1cc(C(=O)COc2cc(-c3nc4ccccc4[nH]3)[nH]n2)ccc1Cl [Example 211, 5-{2-[5-(1H-Benzoimida-zol-2-yl)-1H-pyrazol-3-yloxy]-acetyl}-2-chloro-benzenesulfonamide] was tested. Which IC50 did it give?
Answer: > 3 µM

Question: With O=C(NCc1ccc(C(F)(F)F)cc1)c1ccc2[nH]c(-c3n[nH]c4ccccc34)nc2c1 [Example 33, 2-(1H-Indazol-3-yl)-1H-benzoimidazole-5-carboxylic acid 4-trifluoromethyl-benzylamide] as the molecule, how does the IC50 read?
Answer: 0.3 to 3 µM

Question: Which IC50 does the source give for Fc1ccc(-c2ccc3nc(-c4[nH]nc5ccccc45)[nH]c3c2)c(F)c1 [Example 135, 3-[6-(2,4-Difluoro-phenyl)-1H-benzoimidazol-2-yl]-2H-indazole] here?
Answer: 0.3 to 3 µM

Question: How did the IC50 turn out when CC(=O)c1cccc(-c2ccc3nc(-c4[nH]nc5ccccc45)[nH]c3c2)c1 [Example 129, 1-{3-[2-(2H-Indazol-3-yl)-3H-benzoimidazol-5-yl]-phenyl}-ethanone] was run?
Answer: > 3 µM

Question: Which IC50 does the source give for CC(C)c1ccc(CNC(=O)c2ccc3[nH]c(-c4n[nH]c5ccccc45)nc3c2)cc1 [Example 52, 2-(1H-Indazol-3-yl)-1H-benzoimidazole-5-carboxylic acid 4-isopropyl-benzylamide] here?
Answer: 0.3 to 3 µM

Question: COc1ccc(C(=O)Oc2cc(-c3nc4ccccc4[nH]3)[nH]n2)cc1 [Example 218, 4-Methoxy-benzoic acid 5-(1H-benzoimidazol-2-yl)-1H-pyrazol-3-yl ester] was tested. Which IC50 did it give?
Answer: > 3 µM

Same assay, conditions: read-out: IC50 (μM) on inhibition of the phosphory-lation of PLCγ by KDR

Question: How did the IC50 turn out when CNC(=O)c1ccc2[nH]c(-c3n[nH]c4ccccc34)nc2c1 [Example 2, 2-(1H-Indazol-3-yl)-1H-benzimidazole-5-carboxylic acid N-methylamide] was run?
Answer: 0.45 µM

Question: How did the IC50 turn out when O=C(c1ccc2[nH]c(-c3n[nH]c4ccccc34)nc2c1)N1CCOCC1 [Example 7, 2-(1H-Indazol-3-yl)-1H-benzimidazole-5-carboxylic acid N-morpholinoamide] was run?
Answer: 0.72 µM
